{
  "source": "patent US10251861B2",
  "about": "“Methods for treating burn and scar injury using tocotrienol compositions” (Ohio State Innovation Foundation, priority 2012, dated 2019)",
  "key": {"NF-KB activation": {"system": "NF-KB activation", "conditions": "cited from earlier work; for tumor necrosis factor a (TNF-a)-induced NF-KB activation: similar dose of both compounds"}, "[1]": {"conditions": "per day; Food and Nutrition Board of the Institute of Medicine; also printed as 1,500 IU; cited from earlier work"}, "burn-induced scar": {"system": "burn-induced scar", "assay": "Burn-induced scar outcome after topical tocotrienol (FIG. 1)", "assay_type": "in vivo", "conditions": "topical treatment vs placebo; 65 days after burn injury; n=8; p<0.05", "protocol": "(§1) FIG. 1A-FIG. 1D. Topical vitamin E alpha-tocotrienol improves scar outcome. Alpha-tocotrienol content and scar outcomes were assessed in skin 65 days after burn injury. Representative placebo and T3-treated burn scars depicted (A) (scale bar=1 cm). […] Color (C) and contour (D) were judged by blinded reviewers according to their respective 5-point scales. […] Data are mean+SD (n=8); *p<0.05."}, "HMG-CoA reductase": {"target": "T1, HMG-CoA reductase (Homo sapiens, UniProt P04035)", "T1 sequence (P04035 1-888)": "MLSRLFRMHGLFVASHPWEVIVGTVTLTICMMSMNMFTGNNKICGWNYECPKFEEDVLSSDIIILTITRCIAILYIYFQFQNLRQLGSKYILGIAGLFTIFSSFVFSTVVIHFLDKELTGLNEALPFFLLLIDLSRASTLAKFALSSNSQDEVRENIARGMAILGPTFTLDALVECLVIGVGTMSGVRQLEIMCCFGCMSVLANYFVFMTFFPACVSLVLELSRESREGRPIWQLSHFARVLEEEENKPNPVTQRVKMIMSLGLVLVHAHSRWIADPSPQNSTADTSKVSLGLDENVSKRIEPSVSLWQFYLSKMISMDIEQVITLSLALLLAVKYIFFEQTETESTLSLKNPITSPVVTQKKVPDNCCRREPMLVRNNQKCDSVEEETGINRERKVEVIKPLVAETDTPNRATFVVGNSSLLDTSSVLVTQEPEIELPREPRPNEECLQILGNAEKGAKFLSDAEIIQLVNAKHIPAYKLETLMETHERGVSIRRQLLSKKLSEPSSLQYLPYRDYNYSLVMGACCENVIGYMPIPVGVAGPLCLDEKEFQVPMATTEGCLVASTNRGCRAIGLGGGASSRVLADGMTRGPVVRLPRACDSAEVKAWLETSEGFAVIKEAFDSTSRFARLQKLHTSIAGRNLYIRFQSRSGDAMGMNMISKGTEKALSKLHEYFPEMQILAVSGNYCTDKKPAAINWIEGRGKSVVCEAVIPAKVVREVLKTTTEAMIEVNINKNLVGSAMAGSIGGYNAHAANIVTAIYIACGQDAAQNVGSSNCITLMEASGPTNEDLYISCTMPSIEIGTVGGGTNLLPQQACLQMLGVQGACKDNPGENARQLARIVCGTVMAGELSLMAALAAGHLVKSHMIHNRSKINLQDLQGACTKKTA", "conditions": "micromolar amounts; cited from earlier work"}, "IL-1 and IL-6 in serum": {"system": "IL-1 and IL-6 in serum", "conditions": "treated rats; vs before nicotine and tocotrienol treatment; cited from earlier work"}, "[2]": {"assay": "Ongoing IRB protocol 200500034, oral TCT supplementation before surgery", "assay_type": "in vivo, human", "protocol": "In this protocol, patients are being supplemented 200 mg TCT twice a day for a minimum of 4 weeks prior to surgery. The maximum supplementation has been for over a year (currently on-going supplementation)\n(§2) The inventors have also observed that oral supplementation in animals results in enhancement of tocotrienol in tissues such as skin, brain, lung etc. Levels of tocotrienol in human tissues following supplementation is currently being investigated by the inventors' laboratory (IRB protocol 200500034). The patients in the inventors' ongoing study are being orally supplemented with 200 mg twice a day. Recently, pharmacokinetic studies have been performed where humans have been orally supplemented with tocotrienol (dose: 692 mg). Based on this work and the inventors' current study, the inventors plan to use (200×2=400 mg/day; note that for alpha-tocopherol 1 mg=1.51 U) for the inventors' study.\nIn this protocol, patients are being supplemented 200 mg TCT twice a day for a minimum of 4 weeks prior to surgery.\nIn this protocol, patients are being supplemented 200 mg TCT twice a day for a minimum of 4 weeks prior to surgery. The maximum supplementation has been for over a year (currently on-going supplementation)."}, "[3]": {"assay": "Oral tocotrienol supplementation in animals, tissue levels", "assay_type": "in vivo", "protocol": "as §2"}, "[4]": {"system": "adhesion molecules (ICAM, VCAM, and E-selectin)", "conditions": "compared among forms of vitamin E; cited from earlier work"}, "[5]": {"assay": "Alpha-tocotrienol content in burn scar tissue (FIG. 1B)", "assay_type": "in vivo", "conditions": "topical treatment vs placebo; skin 65 days after burn injury; n=8; p<0.05", "protocol": "as §1"}, "Akt": {"system": "Akt", "conditions": "cited from earlier work"}, "IKBa kinase (IKK)": {"system": "IKBa kinase (IKK)", "conditions": "cited from earlier work"}},
  "data": [
    {"compound": "Cc1c(O)cc2c(c1C)O[C@](C)(CCC[C@H](C)CCC[C@H](C)CCCC(C)C)CC2", "note": "[gamma-tocopherol]", "values": [
      {"measurement": "tumor necrosis factor a (TNF-a)-induced NF-KB activation", "setting": "NF-KB activation", "value": "no effect"}
    ]},
    {"compound": "Cc1c(C)c2c(c(C)c1O)CC[C@@](C)(CCC[C@H](C)CCC[C@H](C)CCCC(C)C)O2", "note": "[alpha-tocopherol]", "values": [
      {"measurement": "upper tolerable intake level (UL)", "setting": "[1]", "value": "1,000 mg"}
    ]},
    {"compound": "tocotrienol", "values": [
      {"measurement": "scar color, 5-point scale, blinded reviewers", "setting": "burn-induced scar", "value": "significantly improved"},
      {"measurement": "scar contour, 5-point scale, blinded reviewers", "setting": "burn-induced scar", "value": "significantly improved"},
      {"measurement": "activity of HMG-CoA reductase", "setting": "HMG-CoA reductase", "value": "suppress"},
      {"measurement": "serum levels of IL-6", "setting": "IL-1 and IL-6 in serum", "value": "significantly lower"},
      {"measurement": "related adverse effects", "setting": "[2]; 200 mg TCT twice a day, minimum 4 weeks prior to surgery, maximum over a year", "value": "no related adverse affects"},
      {"measurement": "reaching the skin", "setting": "[2]; oral dosage of 400 mg per day", "value": "sufficient to reach the skin"},
      {"measurement": "appearance of scars", "setting": "[2]; pre-treatment with TCT, observations from ongoing study", "value": "Improves"},
      {"measurement": "tocotrienol in tissues such as skin, brain, lung", "setting": "[3]", "value": "enhancement"},
      {"measurement": "reducing endothelial expression of adhesion molecules and adhesion to monocytes", "setting": "[4]", "value": "most effective"},
      {"measurement": "alpha-tocotrienol content in scar tissue", "setting": "[5]", "value": "significantly increased"}
    ]},
    {"compound": "CC(C)=CCC/C(C)=C/CC/C(C)=C/CC[C@]1(C)CCc2cc(O)c(C)c(C)c2O1", "note": "[gamma-tocotrienol]", "values": [
      {"measurement": "TNF induced Akt activation", "setting": "Akt", "value": "inhibit"},
      {"measurement": "TNF-induced activation of IKBa kinase (IKK)", "setting": "IKBa kinase (IKK)", "value": "inhibiting"},
      {"measurement": "NF-KB activation induced by phorbol myristate acetate, okadaic acid, lipopolysaccharide, cigarette smoke, IL-1I, and epidermal growth factor", "setting": "NF-KB activation", "value": "abolished"},
      {"measurement": "TAK 1/TAB 1-induced NF-KB dependant reporter gene expression", "setting": "NF-KB activation", "value": "inhibit"},
      {"measurement": "constitutive NF-KB activation expressed by certain tumor cells", "setting": "NF-KB activation", "value": "nullified"},
      {"measurement": "tumor necrosis factor a (TNF-a)-induced NF-KB activation", "setting": "NF-KB activation", "value": "completely abolished"}
    ]}
  ]
}
